The source of these data is patent US10543298B2, “Salts of tetracyclines” (Hovione Scientia Limited, priority 2015, dated 2020).

Where a name gives a salt, the structure may show the parent alone. Read-outs that look alike come from different tables or passages of the source.

The conditions of data set [1]: background statement on the acidic salt; cited from earlier work.
Data set [2] is described as follows: pH of aqueous solutions of the salts. The following applies: aqueous solution, concentration approximately 10^-3 M.
The nature of data set [3]: Color classification according to the Munsell color system. Type of data set: physicochemical. The source says:
The table below presents the color classification of the doxycycline salts according to the Munsell color system.

Data set [4] in a line: Solubility in buffers at pH 1.0, 1.2, 4.5, 6.8 and 7.5. Type of data set: physicochemical. As for the experimental part:
The buffers at pH 1.0 and 1.2 were prepared with aqueous solutions of potassium chloride 0.2M and hydrochloric acid 0.2 M, the buffers at pH 6.8 and 7.5 were prepared with aqueous solutions of monobasic potassium phosphate 0.2 M and sodium hydroxide 0.2 M and the buffer at pH 4.5 with aqueous solutions of potassium biphthalate 0.2 M and hydrochloric acid 0.2 M, according to pharmacopoeia USP31.
The statement freely soluble means that the volume of solvent (required for dissolution) in ml per gram of solute is of from 1 to 10. The statement soluble means that the volume of solvent (required for dissolution) in ml per gram of solute is of from […]. The statement sparingly soluble means that the volume of solvent (required for dissolution) in ml per gram of solute is of from 30 to 100. The statement slightly soluble means that the volume of solvent (required for dissolution) in ml per gram of solute is of from 100 to 1000. The statement very slightly soluble means that the volume of solvent (required for dissolution) in ml per gram of solute is from 1000 to 10 000.

`C[C@H]1c2cccc(O)c2C(=O)C2=C(O)[C@]3(O)C(=O)C(C(N)=O)=C(O)[C@@H](N(C)C)[C@@H]3[C@@H](O)[C@@H]21` [doxycycline hydrochloride]: the pH result in data set [1] is reported as “about 3”.
Regarding Demeclocycline Maleate, the pH in data set [2] amounted to 3.4. Moreover, in data set [3], the “Color Description” value is on record as “Yellowish”. In addition, the “Munsell Classification” value in data set [3] (Munsell color system) is 5Y/9/2 NN. Besides, the “Solubility pH = 1.0 (class)” value in data set [4] (buffer pH 1.0, KCl 0.2 M / HCl 0.2 M) is listed as “Soluble (The statement soluble means that the volume of solvent (required for dissolution) in ml per gram of solute is of from 1 to 30)”. Besides, the “Solubility pH = 1.2 (class)” value in data set [4] (buffer pH 1.2, KCl 0.2 M / HCl 0.2 M) is recorded as “Soluble (The statement soluble means that the volume of solvent (required for dissolution) in ml per gram of solute is of from 1 to 30)”. Besides, the “Solubility pH = 4.5 (class)” value in data set [4] (buffer pH 4.5, potassium biphthalate 0.2 M / HCl 0.2 M) was “Sparingly (The statement sparingly soluble means that the volume of solvent (required for dissolution) in ml per gram of solute is of from 30 to 100)”. The “Solubility pH = 6.8 (class)” value in data set [4] (buffer pH 6.8, monobasic potassium phosphate 0.2 M / NaOH 0.2 M) is listed as “Sparingly (The statement sparingly soluble means that the volume of solvent (required for dissolution) in ml per gram of solute is of from 30 to 100)”. Moreover, the “Solubility pH = 7.5 (class)” value in data set [4] (buffer pH 7.5, monobasic potassium phosphate 0.2 M / NaOH 0.2 M) is “Sparingly (The statement sparingly soluble means that the volume of solvent (required for dissolution) in ml per gram of solute is of from 30 to 100)”.
